The results in this text go back to patent US12187684B2, “Benzimidazole derivatives as modulators of retinoid-related orphan receptor gamma (RORγ) and pharmaceutical use thereof” (Jiangsu Hengrui Medicine Co., Ltd., priority 2018, dated 2025).

One test has as its target T1, RORγ LBD-GST tagged (Homo sapiens, UniProt P51449).
T1 construct: RORγ LBD-GST tagged (Cat No. RORC-114H, Creative Biomart); purchased Creative Biomart RORC-114H
T1 sequence (P51449 269-508 limits assumed): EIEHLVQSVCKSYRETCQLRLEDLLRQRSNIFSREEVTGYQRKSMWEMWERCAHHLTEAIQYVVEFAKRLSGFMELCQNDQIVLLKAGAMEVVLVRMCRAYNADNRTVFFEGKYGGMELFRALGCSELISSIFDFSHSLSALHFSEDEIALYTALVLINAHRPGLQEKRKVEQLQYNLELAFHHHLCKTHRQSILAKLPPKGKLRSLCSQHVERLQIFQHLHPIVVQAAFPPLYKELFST
The test is described as follows: LanthaScreen TR-FRET RORγ coactivator assay. Type of test: biochemical. To be noted: Fluorescein-D22 coactivator peptide, 1 hour room temperature. In a few lines:
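GST-tagged RORγ LBD (25 ng/reaction) was incubated in coregulator buffer D with 5 mM DTT and compound (top 3 μM, 7-fold steps, 7 doses), then with a mix containing 0.6 μM fluorescein-D22 peptide and 8 nM Tb anti-GST antibody. After 1 h at room temperature in the dark, 520/495 nm TR-FRET was read. IC50 came from log concentration versus percent inhibition.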

Test [1] relates to IL-17 production, human PBMC cells. The test is described as follows: IL-17 production assay using human PBMC. Format: cell-based. To be noted: human PBMC stimulated by cytostim for 3 days, IL-17 ELISA of supernatant. Summed up: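 Cryopreserved human PBMCs, 1×10^5 per well in TexMACS, were treated with compound or vehicle (<0.5% DMSO) and stimulated with Cytostim (10 μL/mL) for 3 days at 37 °C. Supernatant IL-17 was measured by ELISA. IC50 was taken from concentration versus percent inhibition.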
(In general: An ELISA detects its analyte on a solid surface through an enzyme-linked reagent.)

Each structure is given as a SMILES string.

The term IC50 denotes the concentration that inhibits the measured activity by half. Low readings indicate inhibition by little substance, high ones a need for much substance. On to `O=S(=O)(CC1CC1)c1ccc(C(CCO)c2nc3cc(Cl)c(N4CCC(F)(F)CC4)c(Cl)c3[nH]2)cc1` (single isomer, unassigned) [3-(4-((cyclopropylmethyl)sulfonyl)phenyl)-3-(5,7-dichloro-6-(4,4-difluoropiperidin-1-yl)-1H-benzo[d]imidazol-2-yl)propan-1-ol], for which the IC50 turned out to be 0.003 µM on RORγ LBD-GST tagged and 0.006 µM in test [1] (Homo sapiens, PBMC, 72 h).
In the same order, the values of `CC(C)Oc1ccccc1-c1c(Cl)cc2nc(C(O)c3ccc(S(=O)(=O)CC4CC4)cc3)[nH]c2c1Cl` (centres unmarked) [Example 133, (4-((cyclopropylmethyl)sulfonyl)phenyl)(5,7-dichloro-6-(2-isopropoxyphenyl)-1H-benzo[d]imidazol-2-yl)methanol] are 0.024 µM and 0.027 µM.
In the same order, the values of `O=S(=O)(CC1CC1)c1ccc(C(O)c2nc3c(Cl)c(-c4ccccc4OC(F)F)c(Cl)cc3[nH]2)c(F)c1` (centres unmarked) [Example 100, (4-((cyclopropylmethyl)sulfonyl)-2-fluorophenyl)(4,6-dichloro-5-(2-(difluoromethoxy)phenyl)-1H-benzo[d]imidazol-2-yl)methanol] are 0.014 µM and 0.0013 µM.
In the same order, the values of `CCS(=O)(=O)c1ccc(C(N)c2nc3c(Cl)c(-c4ccccc4OC(F)F)c(Cl)cc3[nH]2)cc1` (centres unmarked) [Example 39, (4,6-dichloro-5-(2-(difluoromethoxy)phenyl)-1H-benzo[d]imidazol-2-yl)(4-(ethylsulfonyl)phenyl)methanamine] are 0.007 µM and 0.038 µM.
Regarding `CCS(=O)(=O)c1ccc(C(CCO)c2nc3c(Cl)c(N4CCC(F)(F)CC4)c(Cl)cc3[nH]2)cc1` (single isomer, unassigned) [the longer retention time of 139 and 140, 3-(4,6-dichloro-5-(4,4-difluoropiperidin-1-yl)-1H-benzo[d]imidazol-2-yl)-3-(4-(ethylsulfonyl)phenyl)propan-1-ol], the half-maximal inhibitory concentration (IC50) worked out at 0.035 µM on RORγ LBD-GST tagged and 0.026 µM in test [1].
In the same order, the values of `O=S(=O)(CC1CC1)c1ccc(C(CCN2CCOCC2)c2nc3cc(-c4ccccc4OC(F)F)c(Cl)cc3[nH]2)cc1` (single isomer, unassigned) [164 or 165 made from Int-164B, (R or S)-4-(3-(6-chloro-5-(2-(difluoromethoxy)phenyl)-1H-benzo[d]imidazol-2-yl)-3-(4-((cyclopropylmethyl)sulfonyl)phenyl)propyl)morpholine] are 0.418 µM and 0.35 µM.
Regarding `CCS(=O)(=O)c1ccc(Cc2nc3c(Cl)c(-c4ccccc4OCOC)c(Cl)cc3[nH]2)cc1` [Example 13, 4,6-dichloro-2-(4-(ethylsulfonyl)benzyl)-5-(2-(methoxymethoxy)phenyl)-1H-benzo[d]imidazole], the IC50 was 0.675 µM at RORγ LBD-GST tagged and 0.082 µM in test [1] (Homo sapiens, PBMC, 72 h).
In the same order, the values of `NC(=O)CC(c1ccc(S(=O)(=O)CC2CC2)cc1)c1nc2cc(Cl)c(-c3ccccc3OC(F)F)cc2[nH]1` (centres unmarked) [Example 141, 3-(5-chloro-6-(2-(difluoromethoxy)phenyl)-1H-benzo[d]imidazol-2-yl)-3-(4-((cyclopropylmethyl)sulfonyl)phenyl)propanamide] are 0.01 µM and 0.02 µM.
Consider `CC(C)Oc1ccccc1-c1cc2nc(C(CC(N)=O)c3ccc(S(=O)(=O)CC4CC4)cc3)[nH]c2cc1Cl` (single isomer, unassigned) [the longer retention time of 148 and 149, 3-(6-chloro-5-(2-isopropoxyphenyl)-1H-benzo[d]imidazol-2-yl)-3-(4-((cyclopropylmethyl)sulfonyl)phenyl)propanamide], for which the IC50 at RORγ LBD-GST tagged stood at 0.083 µM; in test [1], 0.022 µM.
With `CCS(=O)(=O)c1ccc(C(CO)c2nc3c(Cl)c(-c4ccccc4OC(C)C)c(Cl)cc3[nH]2)cc1` (centres unmarked) [Example 9, 2-(4,6-dichloro-5-(2-isopropoxyphenyl)-1H-benzo[d]imidazol-2-yl)-2-(4-(ethylsulfonyl)phenyl)ethanol], the 50% inhibitory concentration (IC50) on RORγ LBD-GST tagged was 0.475 µM; in test [1] (Homo sapiens, PBMC, 72 h), 0.01 µM.
